# Measured values as given in patent US10478437B2, “Combination therapy to enhance the anticancer efficacy of platinum drugs” (University of Pittsburgh-of the Commonwealth System of …, priority 2014, dated 2019).
# Test system: cisplatin-resistant ovarian cancer cell line A2780cis
# Test: Caspase-3/7 activity assay (apoptotic cell death), compound alone or with cisplatin
# Type: cell-based, human
# Conditions: for caspase-3/7 activity (Lum), compound with cisplatin / caspase-3/7 activity (Lum), compound alone: 20 h; for caspase-3/7 activity (Lum), compound alone: compound 20 μM; for activity in the screen (Caspase-3/7 activity and microscopic examination), active / inactive: alone or in the presence of cisplatin, in words
# Description: Cell proliferation was determined using a CyQUANT Direct Cell Proliferation Assay kit (Invitrogen), the activity of caspase-3/7 was measured using a Caspase-Glo 3/7 Assay Systems (Promega, Madison, Wis.), and the MTS calorimetric survival assay was performed using the CellTiter 96 AQueous One Solution Cell Proliferation Assay kit (Promega, Madison, Wis.), according to the manufacturer's instructions. The survival fractions were calculated after setting untreated control cells at 100%. The data were plotted and curve fitted using GraphPad Prism software. To quantify the number of cells with active caspase-3, cells were fixed with 4% paraformaldehyde (Electron microscopy sciences, Hatfield, Pa.), stained with Alexa Fluor-488 conjugated antibody against cleaved caspase-3 (Asp175) (Cell Signaling Technology, Danvers, Mass.) followed by flow cytometry. An FITC Annexin V Apoptosis Detection Kit (BD PharMingen, San Diego, Calif.) was used to quantify apoptotic cells, according to the manufacturer's instructions.
# A Caspase-3/7 assay was performed to evaluate the activity of the 36 compounds of FIG. 1 in vitro in the cisplatin-resistant ovarian cancer cell line, A2780cis, alone or in the presence of cisplatin. A microscopic examination of apoptotic morphologic changes was also carried out right before the measurement of Caspase-3/7 activity, in order to confirm that the data on the activation of the Caspase-3/7 following treatment is consistent with morphological change and reflects cell death.
# [1] = Table 1, compound 20 μM with 20 μM cisplatin
# [2] = Table 1, mean ± S.D. of triplicates
# [3] = Table 3, compound 20 μM with 20 μM of cisplatin
Structure (SMILES),"caspase-3/7 activity (Lum), compound with cisplatin [1]","caspase-3/7 activity (Lum), compound alone [2]","activity in the screen (Caspase-3/7 activity and microscopic examination), active / inactive","caspase-3/7 activity (Lum), compound with cisplatin [3]","caspase-3/7 activity (Lum), compound alone (Table 3)"
CC(C)(C)C1CCc2c(sc3[nH]c(=S)n(Cc4ccccc4)c(=O)c23)C1 (stereo not shown) [Compound 1-27],40 ± 5 Lum,23 ± 2 Lum,inactive,,
Nn1c(=S)[nH]c2ccccc2c1=O [Compound 1-28],22 ± 2 Lum,15 ± 1 Lum,,,
CC(=O)Nn1c(=S)[nH]c2ccccc2c1=O [Compound 1-29],23 ± 1 Lum,15 ± 2 Lum,,,
CCN(CC)CCn1c(=O)[nH]c2ccccc2c1=O [Compound 1-31],26 ± 4 Lum,12 ± 1 Lum,,,
O=c1[nH]c2ccccc2c(=O)n1CCCN1CCOCC1 [Compound 1-32],20 ± 1 Lum,13 ± 1 Lum,,,
O=c1[nH]c2ccccc2c(=O)n1CCc1ccccc1 [Compound 1-33],16 ± 1 Lum,10 ± 1 Lum,,,
CCOC(=O)c1ccccc1NC(=O)c1c(O)[nH]c(=S)[nH]c1=O [Compound 1-34],22 ± 3 Lum,12 ± 1 Lum,,,
O=C(Nc1ccccc1)c1c(O)[nH]c(=S)[nH]c1=O [Compound 1-35],5 ± 1 Lum,2 ± 1 Lum,,,
CCCCn1c(=S)[nH]c2cc(C(=O)OC)ccc2c1=O [Compound 1-36],47 ± 3 Lum,16 ± 2 Lum,,,
Cc1cccnc1NC(=S)NC(=O)c1cccs1 [Compound 2-2],,,,25 ± 1 Lum,9 ± 1 Lum
O=C(NC(=S)Nc1ccccc1N1CCOCC1)c1ccco1 [Compound 2-3],,,,20 ± 1 Lum,8 ± 1 Lum
O=C(NC(=S)Nc1ccccc1N1CCCC1)c1cccs1 [Compound 2-4],,,,18 ± 1 Lum,8 ± 1 Lum
COc1ccc(C=C2C(=O)NC(=S)NC2=O)c(OC)c1 [Compound 2-6],,,,22 ± 1 Lum,7 ± 1 Lum
O=C(NC(=S)Nc1ccccc1)c1ccc(Br)o1 [Compound 2-8],,,,20 ± 2 Lum,7 ± 2 Lum
O=C(NC(=S)NCC1CCCO1)c1ccccc1 (stereo not shown) [Compound 2-9],,,,20 ± 2 Lum,8 ± 1 Lum
Cc1c(NC(=S)NC(=O)C(C)(C)C)c(=O)n(-c2ccccc2)n1C [Compound 2-10],,,,20 ± 2 Lum,7 ± 2 Lum
CC(C)C(=O)NC(=S)Nc1ccc(F)c(Cl)c1 [Compound 2-11],,,,17 ± 2 Lum,9 ± 1 Lum
O=C(CNC(=S)NC(=O)c1ccco1)c1ccccc1 [Compound 2-12],,,,18 ± 1 Lum,7 ± 1 Lum

Structure (SMILES),"caspase-3/7 activity (Lum), compound with cisplatin [1]","caspase-3/7 activity (Lum), compound alone [2]","activity in the screen (Caspase-3/7 activity and microscopic examination), active / inactive","caspase-3/7 activity (Lum), compound with cisplatin [3]","caspase-3/7 activity (Lum), compound alone (Table 3)"
O=C(NC(=S)NC1CCS(=O)(=O)C1)c1ccc(F)cc1 (stereo not shown) [Compound 2-13],,,,20 ± 3 Lum,8 ± 1 Lum
O=C(NC(=S)NC1CCS(=O)(=O)C1)c1ccccc1 (stereo not shown) [Compound 2-14],,,,21 ± 2 Lum,8 ± 1 Lum
COCCCNC(=S)NC(=O)c1ccc(F)cc1 [Compound 2-15],,,,18 ± 3 Lum,8 ± 1 Lum
O=C(NC(=S)Nc1ccc(F)c(Cl)c1)C1CCCCC1 [Compound 2-16],,,,17 ± 1 Lum,8 ± 1 Lum
O=C(NC(=S)NCCN1CCOCC1)c1ccc(F)cc1 [Compound 2-17],,,,18 ± 1 Lum,7 ± 2 Lum
O=C(NC(=S)NCCN1CCOCC1)c1ccc(Cl)cc1 [Compound 2-18],,,,17 ± 1 Lum,9 ± 1 Lum
CC(C)(C)C(=O)NC(=S)Nc1sc2c(c1C(N)=O)CCCC2 [Compound 2-20],,,,15 ± 2 Lum,8 ± 1 Lum
O=C(NC(=S)Nc1ccccc1F)c1ccco1 [Compound 2-21],,,,25 ± 1 Lum,8 ± 1 Lum
O=C(CNC(=S)NC(=O)c1ccc(F)cc1)c1ccccc1 [Compound 2-22],,,,26 ± 2 Lum,9 ± 1 Lum
Cc1ccc(NC(=S)NC(=O)c2ccc(F)cc2)nc1 [Compound 2-23],,,inactive,22 ± 2 Lum,7 ± 0 Lum
Cc1ccc(C(=O)NC(=S)Nc2ccc(C)cn2)cc1 [Compound 2-24],,,inactive,19 ± 5 Lum,7 ± 1 Lum
COc1ccc(C(C)=C2C(=O)NC(=S)NC2=O)cc1 [Compound 2-25],,,,24 ± 2 Lum,6 ± 0 Lum
COc1ccc(C(C)=C2C(=O)NC(=S)NC2=O)cc1OC [Compound 2-26],,,,21 ± 4 Lum,6 ± 0 Lum
CCCN1C(=O)C(=C(C)NC2CCC(C)CC2)C(=O)NC1=S (stereo not shown) [Compound 2-27],,,,19 ± 3 Lum,7 ± 1 Lum
O=C(NC(=S)NCCc1ccccc1)C1CCCCC1 [Compound 2-28],,,,18 ± 2 Lum,7 ± 1 Lum
NC(=O)c1ccccc1NC(=S)NC(=O)c1ccco1 [Compound 2-29],,,,19 ± 3 Lum,7 ± 1 Lum
O=C(NC(=S)NCc1ccccc1)C1CCCCC1 [Compound 2-30],,,,20 ± 5 Lum,6 ± 0 Lum
